Measured values published in US7722863B2, “Use of granzyme b as an hsp70/hsp70 peptide dependent inducer of apoptosis in tumor cells” (Multimmune GmbH, priority 2002, dated 2010).
Several values for one entry are separate records, joined by “and”; a condition that tells them apart may be missing. Identical values can stand only once.

Legend:
Type in all cases: cell-based, human
[1] = tested on: Hsp70 membrane-negative Colo− cells; assay: Annexin V-FITC apoptosis assay (flow cytometry); conditions: 12 h and 24 h; camptothecin 4 μg/ml or granzyme B 6 ng/ml
Description: (§1) Exponentially growing tumor cells (day 1 after cell passage) were used for granzyme B, camptothecin treatment and as targets in cytotoxicity assays.
(§2) Stock solutions of camptothecin (4 mg/ml, Sigma, Munich, Germany) were diluted in DMSO and stored at 4° C. in the dark. Granzyme B (6 ng/ml, Hölzel Diagnostics, Cologne, Germany) solutions were freshly prepared directly before usage. Exponentially growing cells (0.5-1.5×10^6/ml) were incubated either with camptothecin at a final concentration of 4 μg/ml or with purified, enzymatically active granzyme B (10 ng/ml, 1 μg/ml, 2 μg/ml; 4 μg/ml) (Shi et. al. (2000) Methods in Enzymology 322, 125) for 10 min, and 30 min either at 4° C. or at 37° C. After washing in RPMI-1640 medium binding and uptake was determined in nonpermeabilized and permeabilized tumor cells by flow cytometry and fluorescence microscopy on a Axioscop 25 scanning microscope (Zeiss, Jena, Germany) equipped with a 40× objective and standard filters. Images were treated by multiplicative shading correction using the software Axiovison (Zeiss Vison, Jena, Germany). Granzyme B was visualized in red by using the HC2-PE antibody.
(§3) Apoptotic Cell Death was Determined after Incubation of Tumor Cells with 6 ng/ml Granzyme B for 4 h, 12 h, and 24 h at 37° C. and Washing in RPMI-1640 Medium by Different Apoptosis Assays, as Described Below. Apoptosis Assays
(§4) Annexin V-FITC staining: Briefly, cells were washed twice in Hepes buffer containing 5 mM CaCl2 and incubated with Annexin V-FITC (Roche) for 10 min at room temperature. Annexin V-FITC positively stained cells were measured on a FACSCalibur flow cytometer (Becton Dickinson, Heidelberg, Germany).
(§5) The preceding findings posed the question whether purified granzyme B can induce apoptosis of tumor cells that present Hsp70 on their cell surface. […] As a positive control for apoptosis all cell types were incubated with the topoisomerase inhibitor camptothecin at a concentration of 4 μg/ml. Apoptosis was determined by Annexin V-FITC staining measured by FACS (FACSCalibur, Becton Dickinson, Heidelberg, Germany), DAPI staining and mitochondrial cytochrome c release. Apoptosis was not detected in CX+ and CX− cells incubated with camptothecin (cam) or granzyme B (grB) for 4 h incubation (FIG. 3A). […] It appeared that the colon carcinoma sublines CX+/CX− are better protected towards a camptothecin-mediated cell death as compared to the pancreas carcinoma sublines Colo+/Colo−.

[2] = tested on: Hsp70 membrane-positive Colo+ cells; assay: Annexin V-FITC apoptosis assay (flow cytometry); conditions: granzyme B 6 ng/ml
Description: as §1, §2, §3, §4, §5

[3] = tested on: Hsp70 membrane-positive CX+ cells; assay: Annexin V-FITC apoptosis assay (flow cytometry); conditions: for apoptosis in CX+ cells / amount of Annexin V-FITC positively stained CX+ cells / fold increase of Annexin V-FITC positively stained CX+ cells: camptothecin 4 μg/ml or granzyme B 6 ng/ml; for fold increase of Annexin V-FITC positively stained CX+ cells: versus untreated
Description: as §1, §2, §3, §4, §5

[4] = tested on: Hsp70 membrane-negative CX− cells; assay: Annexin V-FITC apoptosis assay (flow cytometry); conditions: for apoptosis in CX− cells: camptothecin 4 μg/ml or granzyme B 6 ng/ml
Description: as §1, §2, §3, §4, §5

CX+ tumor cells = assay: Cytochrome c release, quantitative immunoassay; conditions: camptothecin 4 μg/ml or granzyme B 6 ng/ml, 24 h
Description: (§6) Cytochrome c release: Cytochrome c release was determined using a quantitative immunoassay; (DCDCO, R&D Systems, Wiesbaden, Germany). Briefly, either untreated, camptothecin (4 μg/ml) or granzyme B (6 ng/ml) treated CX+ and CX− cells (1.5×10^6/ml) were washed in PBS and treated with lysis buffer for 1 h at room temperature. Following centrifugation at 1,000 g for 15 min supernatants were removed and 200 μl of a 1:100, 1:250, and a 1:500 dilution was used for a sandwich ELISA. Following incubation with substrate solution in the dark for 30 min the reaction was stopped. The optical density of each well was determined on an ELISA reader at 450 nm. The amount of cytochrome c was determined according to a calibration curve.
(§7) As an additional test for apoptotic cell death, cytochrome c release was measured following incubation of CX+ and CX− cells with granzyme B for 24 h. As summarized in Table I, following incubation with granzyme B (6 ng/ml) for 24 h, cytochrome c concentration was elevated from 0.382 mg/ml to 0.690 mg/ml (1.8-fold) in CX+ cells. […] It was propose that the trigger of apoptosis by granzyme B is mediated via the extracellular exposed Hsp70 epitope TKD.

CX− tumor cells = assay: Cytochrome c release, quantitative immunoassay; conditions: camptothecin 4 μg/ml or granzyme B 6 ng/ml, 24 h
Description: as §6, §7

## granzyme B
[1]
  apoptosis in Colo− cells: neither a 12 h nor a 24 h treatment with granzyme B induces apoptosis
[2]; 12 h
  fold increase in the amount of Annexin V-FITC positively stained Colo+ cells: 1.3 fold
[2]; 24 h
  fold increase in the amount of Annexin V-FITC positively stained Colo+ cells: 2.4 fold
[3]; 4 h incubation
  apoptosis in CX+ cells: not detected
[3]; 12 h, untreated 16.6%
  amount of Annexin V-FITC positively stained CX+ cells: 20.9%
[3]; 12 h
  fold increase of Annexin V-FITC positively stained CX+ cells: 1.3 fold
[3]; 12 h and 24 h
  apoptosis in CX+ cells: apoptosis was observed
[3]; 24 h, untreated 18%
  amount of Annexin V-FITC positively stained CX+ cells: 30.2%
[3]; 24 h
  fold increase of Annexin V-FITC positively stained CX+ cells: 1.8 fold
[3]; 24 h granzyme B, representative analysis FIG. 3B
  fold increase of Annexin V-FITC positively and PI negatively stained CX+ cells: 1.7 fold
[3]; 24 h granzyme B, representative analysis FIG. 3B, untreated control 18%
  amount of Annexin V-FITC positively and propidium iodide (PI) negatively stained CX+ cells: 30%
[4]; 4 h incubation
  apoptosis in CX− cells: not detected
[4]; 12 h and 24 h
  apoptosis in CX− cells: neither a 12 h nor a 24 h treatment with granzyme B induces apoptosis
[4]; 24 h granzyme B, FIG. 3B
  amount of apoptotic CX− cells before and after treatment: remained unaltered
CX+ tumor cells; control 1.0
  cytochrome c fold increase: 1.8 fold
CX+ tumor cells; mean of 4 experiments ± S.E., control 0.382 ± 0.02
  cytochrome c: 0.690 mg/mL and 0.690 ± 0.08 mg/mL
CX− tumor cells; control 1.0
  cytochrome c fold increase: 0.9 fold
CX− tumor cells; mean of 4 experiments ± S.E., control 0.452 ± 0.02
  cytochrome c: 0.425 mg/mL and 0.425 ± 0.075 mg/mL
